From patent US7420090B2 (priority 2002, dated 2008)

Test system: Pyrenophora teres
Assay type: in vivo
Details: 200 ppm

For CCC(Oc1cc(Cl)cc(Cl)c1)C(=O)NC(C)(C)C#CCCCOC (stereo not shown) [4(57), 2-(3,5-dichlorophenoxy)-N-(1-methoxy-6-methylhept-4-yn-6-yl) butyramide], the “control of fungal infection (preventive fungicidal activity)” value was “more than 60%”.
